What was measured:
Format in all cases: in vivo
[1] = system: blackgrass (Alopecurus myosuroides); assay: Test B postemergence plant response
How it was run: (§1)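 Weeds grown in loam soil/sand pots were sprayed postemergence at 2 to 10 cm height, one- to two-leaf stage. After approximately 10 days in greenhouse, injury was rated visually against untreated controls on a 0 (no effect) to 100 (complete control) scale; dash means no test result.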

[2] = system: galium (catchweed bedstraw, Galium aparine); assay: Test B postemergence plant response
How it was run: as §1

[3] = system: chickweed (common chickweed, Stellaria media); assay: Test D postemergence plant response
Text: (§2) At the same time, plants selected from these crop and weed species and also kochia (Kochia scoparia), wild oat (Avena fatua), and chickweed (common chickweed, Stellaria media) were planted in pots containing Redi-Earth® planting medium (Scotts Company, 14111 Scottslawn Road, Marysville, Ohio 43041) comprising spaghnum peat moss, vermiculite, wetting agent and starter nutrients and treated with postemergence applications of test chemicals formulated in the same manner. Plants ranged in height from 2 to 18 cm (1- to 4-leaf stage) for postemergence treatments. Treated plants and controls were maintained in a greenhouse for 13 to 15 days, after which time all species were compared to controls and visually evaluated. Plant response ratings, summarized in Table D, are based on a scale of 0 to 100 where 0 is no effect and 100 is complete control. A dash (-) response means no test result.

kochia (Kochia scoparia) = assay: Test D postemergence plant response
Text: as §2

wild oat (Avena fatua) = assay: Test D postemergence plant response; conditions: for Plant response rating, Oat, Wild: 125 g ai/ha
Text: as §2

[4] = Postemergence, 1000 g ai/ha, 0 to 100 scale (0 no effect, 100 complete control)
[5] = 31 g ai/ha, scale 0 to 100 (0 no effect, 100 complete control)
[6] = 62 g ai/ha, scale 0 to 100, 0 no effect, 100 complete control
[7] = 125 g ai/ha, scale 0 to 100, 0 no effect, 100 complete control
[8] = scale 0 to 100, 0 no effect, 100 complete control
[9] = 125 g ai/ha, postemergence, 0 to 100 scale, 0 no effect, 100 complete control
[10] = Postemergence, 31 g ai/ha, 0 to 100 scale (0 no effect, 100 complete control)

SMILES	Plant response rating (scale 0 to 100), Chickweed ([3]; 16 g ai/ha)	Chickweed plant response rating [3, 5]	Plant response rating, Chickweed [3, 6]	Plant response rating, Chickweed [3, 7]	Plant response rating (scale 0 to 100), Kochia (kochia (Kochia scoparia); 16 g ai/ha)	Kochia plant response rating (kochia (Kochia scoparia); [5])	Plant response rating, Kochia (kochia (Kochia scoparia); [6])	Plant response rating, Kochia (kochia (Kochia scoparia); [7])	Plant response rating (scale 0 to 100), Oat, Wild (wild oat (Avena fatua); 16 g ai/ha)	Oat, Wild plant response rating (wild oat (Avena fatua); [5])	Oat, Wild plant response rating (wild oat (Avena fatua); [6])	Plant response rating, Oat, Wild (wild oat (Avena fatua); [8])	Plant response rating, Blackgrass [1, 9]	Plant response rating, Blackgrass [1, 10]	Plant response rating, Galium [2, 9]	Plant response rating, Galium [2, 10]	further results
Clc1cnc(Oc2ccccc2-c2cc(Cl)sn2)nc1 [Compound 192]	0	50	50	55	50	80	90	95	0	0	0	5					Plant response rating, Blackgrass [1, 4]: 90; Plant response rating, Galium [2, 4]: 100
FC(Cl)(Cl)c1cc(-c2ccccc2Oc2ncc(Cl)cn2)no1 [Compound 198]	5	60	60	95	60	95	100	100	5	5	10	10	40	10	100	100	
CC(F)(F)c1cc(-c2ccccc2Oc2ncc(Cl)cn2)no1 [Compound 220]	40				100				5				90	60	100	90	Plant response rating (scale 0 to 100), Chickweed ([3]; 2 g ai/ha): 5; Plant response rating (scale 0 to 100), Chickweed ([3]; 4 g ai/ha): 10; Plant response rating (scale 0 to 100), Chickweed ([3]; 8 g ai/ha): 40; Plant response rating (scale 0 to 100), Kochia (kochia (Kochia scoparia); 2 g ai/ha): 20; Plant response rating (scale 0 to 100), Kochia (kochia (Kochia scoparia); 4 g ai/ha): 50; Plant response rating (scale 0 to 100), Kochia (kochia (Kochia scoparia); 8 g ai/ha): 100; Plant response rating (scale 0 to 100), Oat, Wild (wild oat (Avena fatua); 2 g ai/ha): 0; Plant response rating (scale 0 to 100), Oat, Wild (wild oat (Avena fatua); 4 g ai/ha): 0; Plant response rating (scale 0 to 100), Oat, Wild (wild oat (Avena fatua); 8 g ai/ha): 0
FCc1cc(-c2ccccc2Oc2ncc(Cl)cn2)on1 [Compound 224]	10	15	40	80	35	70	95	100	0	0	0	0	70	40	100	80	
Fc1cccc(Oc2ncc(Cl)cn2)c1-c1cc(C(F)(F)F)no1 [Compound 228]	85	85	98	100	100	100	100	100	10	20	40	55	100	60	100	100	
Cc1cc(-c2c(F)cccc2Oc2ncc(Cl)cn2)on1 [Compound 229]	60	60	80	85	85	90	98	98	0	10	10	10	80	30	100	80	
Cc1cc(-c2c(F)cccc2Oc2ncc(Br)cn2)on1 [Compound 230]	65	65		80	65	85		100	0	0	5	10	70	20	100	80	Chickweed plant response rating [3, 6]: 75; Kochia plant response rating (kochia (Kochia scoparia); [6]): 100
